Measured values taken from ChEMBL document CHEMBL1150914, “New pyrrole alkaloids from Solanum sodomaeum” (J Nat Prod, 1998).
In brackets after ≈: the same amount, converted by molar mass. Activity calls are given as the source filed them. The rule behind the calls is not given here.

Assays:
Plasmodium falciparum [1] = assay: Antimalarial activity against Plasmodium falciparum W2; format: functional, organism-based
Cryptococcus neoformans = assay: Antifungal activity against Cryptococcus neoformans; format: functional, organism-based
Vero = assay: Cytotoxicity against african green monkey Vero cells; format: cell-based; conditions: chlorocebus sabaeus
[2] = tested on: Mycobacterium intracellulare; assay: Antibacterial activity against Mycobacterium intracellular; format: functional
Plasmodium falciparum [3] = assay: Antimalarial activity against Plasmodium falciparum D6; format: functional, organism-based
Candida albicans = assay: Antifungal activity against Candida albicans; format: functional, organism-based

SMILES: O=CN(CCc1cnc[nH]1)c1cc[nH]c1 [SOLSODOMINE A]
- Activity (Plasmodium falciparum [1]): inactive
- Activity (Cryptococcus neoformans): inactive
- Activity (Vero): Not Active
- MIC [2]: 10 µg/mL (≈ 49 µM)
- Activity (Plasmodium falciparum [3]): inactive
- Activity (Candida albicans): inactive

SMILES: CNCCCN(C=O)c1cc[nH]c1 [SOLSODOMINE B]
- Activity (Plasmodium falciparum [1]): inactive
- Activity (Cryptococcus neoformans): inactive
- Activity (Vero): Not Active
- Activity (Plasmodium falciparum [3]): inactive
- Activity (Candida albicans): inactive
